Converted amounts (≈) assume the structure as drawn.
Columns and labels:
Trypanosoma cruzi = assay: Antitrypanosomal activity against Trypanosoma cruzi Tulahuen; type: functional
Leishmania braziliensis = assay: Antileishmanial activity against Leishmania braziliensis 2903; type: functional

`CCCCCc1ccc2ccccc2n1` showed an IC90 (Trypanosoma cruzi) of 100 µg/mL (≈ 502 µM) and an IC90 (Leishmania braziliensis) of 100 µg/mL (≈ 502 µM).

For `c1ccc2nc(CCc3ccc4c(c3)OCO4)ccc2c1`, the IC90 (Trypanosoma cruzi) was 100 µg/mL (≈ 361 µM) and the IC90 (Leishmania braziliensis) was 100 µg/mL (≈ 361 µM).

`COc1cc(-c2ccccc2)nc2ccccc12` gave an IC90 (Trypanosoma cruzi) of 100 µg/mL (≈ 425 µM) and an IC90 (Leishmania braziliensis) of 50 µg/mL (≈ 213 µM).

`CCCc1ccc2ccccc2n1` gave an IC90 (Trypanosoma cruzi) of 50 µg/mL (≈ 292 µM) and an IC90 (Leishmania braziliensis) of 50 µg/mL (≈ 292 µM).

Compound `CCCCCc1cc(OC)c2ccccc2n1` has an IC90 (Trypanosoma cruzi) of 100 µg/mL (≈ 436 µM) and an IC90 (Leishmania braziliensis) of 100 µg/mL (≈ 436 µM).

Compound `COc1ccc(CCc2ccc3ccccc3n2)cc1OC` has an IC90 (Trypanosoma cruzi) of 100 µg/mL (≈ 341 µM) and an IC90 (Leishmania braziliensis) of 100 µg/mL (≈ 341 µM).

Work on `C[C@H]1O[C@@H]1c1ccc2ccccc2n1` (relative stereo) [CHIMANINE D] yielded an IC90 (Trypanosoma cruzi) of 50 µg/mL (≈ 270 µM) and an IC90 (Leishmania braziliensis) of 25 µg/mL (≈ 135 µM).

`c1ccc(-c2ccc3ccccc3n2)cc1` [2-PHENYLQUINOLINE] showed an IC90 (Trypanosoma cruzi) of 100 µg/mL (≈ 487 µM) and an IC90 (Leishmania braziliensis) of 100 µg/mL (≈ 487 µM).

For `O=C(Cn1ccnc1[N+](=O)[O-])NCc1ccccc1` [BENZNIDAZOLE], the IC90 (Trypanosoma cruzi) was 50 µg/mL (≈ 192 µM).

Compound `CCCc1cc(OC)c2ccccc2n1` [CHIMANINE A] has an IC90 (Trypanosoma cruzi) of 100 µg/mL (≈ 497 µM) and an IC90 (Leishmania braziliensis) of 100 µg/mL (≈ 497 µM).

`C/C=C/c1ccc2ccccc2n1` [CHIMANINE B] was tested, and the IC90 (Trypanosoma cruzi) was 25 µg/mL (≈ 148 µM) and the IC90 (Leishmania braziliensis) was 25 µg/mL (≈ 148 µM).

For `COc1cc(CCc2ccc3c(c2)OCO3)nc2ccccc12` [CUSPARINE], the IC90 (Trypanosoma cruzi) was 100 µg/mL (≈ 325 µM) and the IC90 (Leishmania braziliensis) was 100 µg/mL (≈ 325 µM).

For `CC1CS(=O)(=O)CCN1/N=C/c1ccc([N+](=O)[O-])o1` (configuration not stated) [NIFURTIMOX], the IC90 (Trypanosoma cruzi) was 25 µg/mL (≈ 87 µM).

Work on `N=C(N)c1ccc(OCCCCCOc2ccc(C(=N)N)cc2)cc1` [PENTAMIDINE] yielded an IC90 (Leishmania braziliensis) of 1 µg/mL (≈ 2.94 µM).

`COc1ccc2c(OC)c3ccoc3nc2c1OC` [SKIMMIANINE] showed an IC90 (Trypanosoma cruzi) of 100 µg/mL (≈ 386 µM) and an IC90 (Leishmania braziliensis) of 100 µg/mL (≈ 386 µM).
